Results from the supplement of paper PMC11451515.

Experiments:
Details in all cases: 48 h
NOMO1 [1] = assay: cell viability relative to DMSO control; higher = less cytotoxic
How it was run: (§1)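 Library compounds in DMSO were pin-dosed into 1536-well plates (5 μl) holding NOMO1 or SEM (500 cells/well) or P12-Ichikawa (1000 cells/well) leukemia cells, across an 11-point threefold series of 47 μM to 0.79 nM. Each cell line had been adapted for at least four passages in each medium. CellTiter-Glo One luminescence was read after 48 h at 37°C. Viability is the per-plate percentage relative to DMSO wells, with cell-free wells as background.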

SEM cells [2] = assay: as above
How it was run: as §1

P12-Ichikawa [3] = assay: as above
How it was run: as §1

NOMO1 [4] = assay: AUC of viability dose-response curve (% viability x log10 dose units); higher = less sensitive
How it was run: (§2)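 Viability of medium-adapted leukemia cells was measured by CellTiter-Glo One luminescence after 48 h at 37°C with library compounds in DMSO. Doses were 11 threefold steps from 47 μM to 0.79 nM, in 1536-well plates at 500 or 1000 cells/well. Signals were normalised per plate to DMSO and cell-free wells and fitted with a four-parameter log-logistic model on log10 dose. Area under the curve was integrated by trapezoidal rule, with curves exceeding full viability scaled and failed quality-control curves removed.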

SEM cells [5] = assay: as above
How it was run: as §2

P12-Ichikawa [6] = assay: as above
How it was run: as §2

CC(O)(C[S+](=O)([O-])c1ccc(F)cc1)C(=O)Nc1ccc(C#N)c(C(F)(F)F)c1 (stereo not drawn)
cell viability [%]
Details	NOMO1 [1]	P12-Ichikawa [3]	SEM cells [2]
HPLM + 10% dialyzed FBS, 0.000781 µM	84.9	94.8	86.8
HPLM + 10% dialyzed FBS, 0.00234 µM	85.7	85.9	96.4
HPLM + 10% dialyzed FBS, 0.00702 µM	98.6	97.2	91
HPLM + 10% dialyzed FBS, 0.0211 µM	92.6	96.8	80.3
HPLM + 10% dialyzed FBS, 0.0632 µM	96.8	93.7	85.2
HPLM + 10% dialyzed FBS, 0.19 µM	97	100	96.2
HPLM + 10% dialyzed FBS, 0.569 µM	112	102	96.2
HPLM + 10% dialyzed FBS, 1.71 µM	94.2	101	93.5
HPLM + 10% dialyzed FBS, 5.12 µM	94.8	95.6	97.4
HPLM + 10% dialyzed FBS, 15.4 µM	87.5	102	83.2
HPLM + 10% dialyzed FBS, 46.1 µM	48	69.9	73.9
RPMI 5 mM glucose + 10% FBS, 0.000781 µM	86.5	84.6	84.9
RPMI 5 mM glucose + 10% FBS, 0.00234 µM	93.4	92.9	83.6
RPMI 5 mM glucose + 10% FBS, 0.00702 µM	96.5	92.3	98
RPMI 5 mM glucose + 10% FBS, 0.0211 µM	93.3	93.9	87
RPMI 5 mM glucose + 10% FBS, 0.0632 µM	85.5	94.5	88.7
RPMI 5 mM glucose + 10% FBS, 0.19 µM	85.8	91.1	103
RPMI 5 mM glucose + 10% FBS, 0.569 µM	91.6	93.2	96.3
RPMI 5 mM glucose + 10% FBS, 1.71 µM	93.3	98.9	96.5
RPMI 5 mM glucose + 10% FBS, 5.12 µM	92.3	90.3	91.8
RPMI 5 mM glucose + 10% FBS, 15.4 µM	86.1	88.9	76.8
RPMI 5 mM glucose + 10% FBS, 46.1 µM	50.7	52.7	62.9
RPMI 5 mM glucose + 10% dialyzed FBS, 0.000781 µM	75.9	78.3	87.2
RPMI 5 mM glucose + 10% dialyzed FBS, 0.00234 µM	91.7	85.5	84.4
RPMI 5 mM glucose + 10% dialyzed FBS, 0.00702 µM	101	90.9	98.1
RPMI 5 mM glucose + 10% dialyzed FBS, 0.0211 µM	95.3	90.3	94.8
RPMI 5 mM glucose + 10% dialyzed FBS, 0.0632 µM	107	95.9	80
RPMI 5 mM glucose + 10% dialyzed FBS, 0.19 µM	109	86.2	102
RPMI 5 mM glucose + 10% dialyzed FBS, 0.569 µM	105	98.2	86.8
RPMI 5 mM glucose + 10% dialyzed FBS, 1.71 µM	82.5	96.2	102
RPMI 5 mM glucose + 10% dialyzed FBS, 5.12 µM	86.6	90.4	99.1
RPMI 5 mM glucose + 10% dialyzed FBS, 15.4 µM	79.4	74	72.3
RPMI 5 mM glucose + 10% dialyzed FBS, 46.1 µM	57	49.4	55

AUC of viability dose-response curve
Details	NOMO1 [4]	P12-Ichikawa [6]	SEM cells [5]
HPLM + 10% dialyzed FBS	439	450	428
RPMI 5 mM glucose + 10% FBS	422	430	426
RPMI 5 mM glucose + 10% dialyzed FBS	436	413	424

CN(C)c1ccc(-c2nc3c(N4CCN(CC(=O)Nc5nccs5)CC4)c(Cl)cnc3[nH]2)cc1
cell viability [%]
Details	NOMO1 [1]	P12-Ichikawa [3]	SEM cells [2]
HPLM + 10% dialyzed FBS, 0.000781 µM	117	109	129
HPLM + 10% dialyzed FBS, 0.00234 µM	130	107	102
HPLM + 10% dialyzed FBS, 0.00702 µM	121	118	115
HPLM + 10% dialyzed FBS, 0.0211 µM	124	110	112
HPLM + 10% dialyzed FBS, 0.0632 µM	113	113	115
HPLM + 10% dialyzed FBS, 0.19 µM	127	117	112
HPLM + 10% dialyzed FBS, 0.569 µM	112	115	109
HPLM + 10% dialyzed FBS, 1.71 µM	102	109	86.9
HPLM + 10% dialyzed FBS, 5.12 µM	101	108	105
HPLM + 10% dialyzed FBS, 15.4 µM	89.9	102	80
HPLM + 10% dialyzed FBS, 46.1 µM	69.2	103	58.8
RPMI 5 mM glucose + 10% FBS, 0.000781 µM	102	113	103
RPMI 5 mM glucose + 10% FBS, 0.00234 µM	99.3	114	118
RPMI 5 mM glucose + 10% FBS, 0.00702 µM	98.6	116	130
RPMI 5 mM glucose + 10% FBS, 0.0211 µM	94.6	131	107
RPMI 5 mM glucose + 10% FBS, 0.0632 µM	101	109	106
RPMI 5 mM glucose + 10% FBS, 0.19 µM	108	125	124
RPMI 5 mM glucose + 10% FBS, 0.569 µM	93.6	111	107
RPMI 5 mM glucose + 10% FBS, 1.71 µM	109	115	87.7
RPMI 5 mM glucose + 10% FBS, 5.12 µM	103	118	92.5
RPMI 5 mM glucose + 10% FBS, 15.4 µM	89.9	95.9	70.3
RPMI 5 mM glucose + 10% FBS, 46.1 µM	77.7	103	51.2
RPMI 5 mM glucose + 10% dialyzed FBS, 0.000781 µM	108	–	105
RPMI 5 mM glucose + 10% dialyzed FBS, 0.00234 µM	107	–	121
RPMI 5 mM glucose + 10% dialyzed FBS, 0.00702 µM	103	–	120
RPMI 5 mM glucose + 10% dialyzed FBS, 0.0211 µM	108	–	116
RPMI 5 mM glucose + 10% dialyzed FBS, 0.0632 µM	113	–	107
RPMI 5 mM glucose + 10% dialyzed FBS, 0.19 µM	106	–	111
RPMI 5 mM glucose + 10% dialyzed FBS, 0.569 µM	101	–	102
RPMI 5 mM glucose + 10% dialyzed FBS, 1.71 µM	107	–	89.7
RPMI 5 mM glucose + 10% dialyzed FBS, 5.12 µM	98.3	–	97.9
RPMI 5 mM glucose + 10% dialyzed FBS, 15.4 µM	94.8	–	71.1
RPMI 5 mM glucose + 10% dialyzed FBS, 46.1 µM	70.3	–	49.6

AUC of viability dose-response curve
Details	NOMO1 [4]	P12-Ichikawa [6]	SEM cells [5]
HPLM + 10% dialyzed FBS	431	468	429
RPMI 5 mM glucose + 10% FBS	466	466	420
RPMI 5 mM glucose + 10% dialyzed FBS	460	428	421

Cc1noc(N[S+](=O)([O-])c2ccc(N)cc2)c1C
cell viability [%]
Details	NOMO1 [1]	P12-Ichikawa [3]	SEM cells [2]
HPLM + 10% dialyzed FBS, 0.000781 µM	92.3	99.4	80.2
HPLM + 10% dialyzed FBS, 0.00234 µM	91.3	106	93.5
HPLM + 10% dialyzed FBS, 0.00702 µM	109	104	104
HPLM + 10% dialyzed FBS, 0.0211 µM	97.9	112	88.1
HPLM + 10% dialyzed FBS, 0.0632 µM	95.6	115	93.2
HPLM + 10% dialyzed FBS, 0.19 µM	101	109	102
HPLM + 10% dialyzed FBS, 0.569 µM	109	111	83.1
HPLM + 10% dialyzed FBS, 1.71 µM	114	114	96.3
HPLM + 10% dialyzed FBS, 5.12 µM	96	109	99.8
HPLM + 10% dialyzed FBS, 15.4 µM	92	102	90.1
HPLM + 10% dialyzed FBS, 46.1 µM	104	117	102
RPMI 5 mM glucose + 10% FBS, 0.000781 µM	98	85.2	87.6
RPMI 5 mM glucose + 10% FBS, 0.00234 µM	92.7	102	97.5
RPMI 5 mM glucose + 10% FBS, 0.00702 µM	88.6	97.6	89.7
RPMI 5 mM glucose + 10% FBS, 0.0211 µM	89.5	91.2	88.5
RPMI 5 mM glucose + 10% FBS, 0.0632 µM	108	99.8	96.2
RPMI 5 mM glucose + 10% FBS, 0.19 µM	102	105	110
RPMI 5 mM glucose + 10% FBS, 0.569 µM	113	98.1	96
RPMI 5 mM glucose + 10% FBS, 1.71 µM	111	94.1	114
RPMI 5 mM glucose + 10% FBS, 5.12 µM	106	102	98
RPMI 5 mM glucose + 10% FBS, 15.4 µM	91.6	96.8	100
RPMI 5 mM glucose + 10% FBS, 46.1 µM	104	100	92.3
RPMI 5 mM glucose + 10% dialyzed FBS, 0.000781 µM	92.3	92.4	99.2
RPMI 5 mM glucose + 10% dialyzed FBS, 0.00234 µM	90.7	90.5	91.5
RPMI 5 mM glucose + 10% dialyzed FBS, 0.00702 µM	71.5	99.5	96.3
RPMI 5 mM glucose + 10% dialyzed FBS, 0.0211 µM	92.6	89.7	89.5
RPMI 5 mM glucose + 10% dialyzed FBS, 0.0632 µM	89	106	120
RPMI 5 mM glucose + 10% dialyzed FBS, 0.19 µM	89.7	106	103
RPMI 5 mM glucose + 10% dialyzed FBS, 0.569 µM	92.6	108	111
RPMI 5 mM glucose + 10% dialyzed FBS, 1.71 µM	96.2	99.3	104
RPMI 5 mM glucose + 10% dialyzed FBS, 5.12 µM	90.3	101	103
RPMI 5 mM glucose + 10% dialyzed FBS, 15.4 µM	94.6	94.1	108
RPMI 5 mM glucose + 10% dialyzed FBS, 46.1 µM	81.4	98.9	99.1

AUC of viability dose-response curve
Details	NOMO1 [4]	P12-Ichikawa [6]	SEM cells [5]
HPLM + 10% dialyzed FBS	464	460	448
RPMI 5 mM glucose + 10% FBS	457	468	457
RPMI 5 mM glucose + 10% dialyzed FBS	426	463	456
